Measured values as given in patent US12440570B2, “Conjugation of MCR1 ligand with cytotoxic drugs for treating skin cancer” (ARIZONA BOARD OF REGENTS ON BEHALF OF THE UNIVERSITY OF …, priority 2019, dated 2025).
Like-named read-outs stand apart in the source and are kept apart here.

How the values were obtained:
human MC1R = target: T1, human MC1R (Homo sapiens, UniProt Q01726); test: Competitive binding assay with 125I labelled NDP-α-MSH on whole cells, MC1R; details: for Ki: HEK293 cells overexpressing human MC1R, 125I NDP-α-MSH; for displacement of NDP-α-MSH from MC1R: within micromolar range concentration
T1 construct: expressed in transfected cells; host or cells: HEK293 (stably transfected)
T1 sequence (Q01726 whole entry): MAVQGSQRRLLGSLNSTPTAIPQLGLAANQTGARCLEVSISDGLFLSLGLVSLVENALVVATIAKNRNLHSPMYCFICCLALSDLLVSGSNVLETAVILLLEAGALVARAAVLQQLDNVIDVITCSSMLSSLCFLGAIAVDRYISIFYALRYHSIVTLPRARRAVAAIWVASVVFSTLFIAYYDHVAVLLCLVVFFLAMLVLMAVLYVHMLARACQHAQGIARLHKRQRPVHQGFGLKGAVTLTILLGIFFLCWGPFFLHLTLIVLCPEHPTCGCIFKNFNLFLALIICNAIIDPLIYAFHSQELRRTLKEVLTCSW
Method: Competitive binding assays were performed on whole cells. Stably transfected HEK293 cell lines overexpressing human MC1R, MC3R, MC4R or MC5R were seeded on 96-well plates 48 h before the assay and grown to 100,000 cells per well. For the assay, the medium was removed, and cells were washed twice with a binding buffer containing minimum essential medium with Earle's salt (MEM, GIBCO), 25 mM HEPES (pH 7.4), 0.2% bovine serum albumin, 1 mM 1,10-phenanthrolone, 0.5 mg/L leupeptin and 200 mg/L bacitracin. Cells were incubated with different concentrations of unlabeled test compounds and ^125I labelled NDP-α-MSH (PerkinElmer, 100,000 cpm/well, 0.1386 nM) for 40 min at 37° C. The medium was subsequently removed, and the cells were washed twice with the binding buffer. The cells were lysed by 50 μL of 0.1 mM NaOH and 50 μL of 1% Triton X-100. The plates were left dry overnight under the hood, and 50 μL of scintillation fluid (OptiPhase SuperMix, PerkinElmer) were added in each well. The radioactivity was measured using MicroBeta 2 microplate counter (PerkinElmer).

[1] = test system: A375 malignant melanoma cells; test: Live-cell confocal microscopy, fluorescence uptake by A375 cells; format: cell-based, human
Method: (§1) 1 mL of A375 or HEK293 cell suspension (˜5×10^4 cells) were seeded in 35 mm No. 1.5 coverslip glass-bottomed microwell dish (MatTek) and cultured overnight. Cells were gently washed with PBS twice and treated with compound 2 (3 μM) with or without MT-II (30 μM) in phenol red-free, HEPES-supplemented DMEM. After incubation at 37° C. for indicated time, cells were washed three times with PBS before imaging. Images were taken with Zeiss LSM880 inverted confocal microscope with either bright field or laser at […] with 2% laser power and Plan-Apochromat 63×/1.4 Oil DIC M27 objective.

[2] = test system: HEK293 kidney epithelial cells; test: Live-cell confocal microscopy, fluorescence uptake by HEK293 cells; format: cell-based; details: 3 μM, 2.5 h
Method: as §1

A375 melanoma cells = test: cells; format: cell-based, human; details: XTT, 24 h incubation, read-out: IC50, A375 melanoma cell viability
Method: A375 cells were seeded in 96 well plates at a density of around 10^5 cells per well in 95 μL of MEM medium and incubated for 24 h, Cells were treated with 5 μL of drugs in a final concentration of 0, 0.3 nM, 1 nM, 3 nM, 10 nM, 30 nM, 100 nM and 300 nM for 24 h. XTT solution was prepared by dissolving 4 mg XTT in 4 mL MEM medium. PMS solution was prepared by dissolving 3 mg of PMS in 1 mL of phosphate buffer saline (PBS). 10 μL of PMS solution was added to 4 mL of XTT solution, and 25 μL of the PMS/XTT mixture was added to each well. The plate was incubated at 37 ° C. for another 2 h culture. Absorbance was measured at 450 nm using a pQuant Universal Microplate Reader (Bio-Tek instruments, Inc., Winooski, VT). Absorbance from no-cells control was subtracted and the percentage of cell viability was calculated as the percentage of absorbance relative to cells treated with medium.

[3] = cited from earlier work
[4] = linear peptide; cited from earlier work

CCCC[C@H](NC(=O)CCCCCNC(=O)[C@@H](N)CSSCCOC(=O)Oc1ccc2c(c1)Oc1cc(O)ccc1C21OC(=O)c2ccccc21)C(=O)N[C@H]1CC(=O)NCCCC[C@@H](C(N)=O)NC(=O)[C@H](Cc2c[nH]c3ccccc23)NC(=O)[C@H](CCCNC(=N)N)NC(=O)[C@@H](Cc2ccccc2)NC(=O)[C@H](Cc2c[nH]cn2)NC1=O (some centres unmarked) [fluorescein-MT-II (2)]
Ki (human MC1R; read-out: Ki MC1R): 0.172 µM | displacement of NDP-α-MSH from MC1R (human MC1R): fully displace | displacement of NDP-α-MSH from MC1R (human MC1R; listed as fluorescein-MT-II): fully displace NDP-α-MSH | fluorescence uptake by A375 cells ([1]; 3 μM with 30 μM of MT-II, 2.5 h): not observed | fluorescence uptake by A375 cells ([1]; 3 μM, 0.5 h): No significant fluorescence uptake | fluorescence uptake by A375 cells ([1]; 3 μM, 2.5 h): strong fluorescence | time for release of fluorescein into A375 ([1]; confocal microscopy): at least 90 minutes | fluorescence uptake by HEK293 cells compared to A375 cells [2]: much weaker fluorescence intensity

CC[C@@]1(O)C(=O)OCc2c1cc1n(c2=O)Cc2cc3ccccc3nc2-1 [CPT, camptothecin, reference compound]
IC50 (A375 melanoma cells; Homo sapiens, A-375): 0.047 ± 0.002 µM | solubility [3]: poor solubility

CCCC[C@H](NC(=O)CCCCCNC(=O)[C@@H](N)CSSCCOC(=O)O[C@]1(CC)C(=O)OCc2c1cc1n(c2=O)Cc2cc3ccccc3nc2-1)C(=O)N[C@H]1CC(=O)NCCCC[C@@H](C(N)=O)NC(=O)[C@H](Cc2c[nH]c3ccccc23)NC(=O)[C@H](CCCNC(=N)N)NC(=O)[C@@H](Cc2ccccc2)NC(=O)[C@H](Cc2c[nH]cn2)NC1=O [CPT-MT-II (1)]
Ki (human MC1R; Ki MC1R): 0.057 µM | selectivity to MC1R as compared to MC3R, MC4R and MC5R (human MC1R; from Ki values): 3-6 fold | IC50 (A375 melanoma cells): 0.016 µM

α-MSH
half-life [4]: around 10 minutes
